Test results as given in ChEMBL document CHEMBL5291721, “A preclinical secondary pharmacology resource illuminates target-adverse drug reaction associations of marketed drugs” (Nat Commun, 2023).
Where a SMILES comes first, the peptide text is derived from it.

Legend:
Glucagon receptor = Glucagon receptor (Homo sapiens, UniProt P47871)
[1] = biological target: T1, Alpha-2A adrenergic receptor (Homo sapiens, UniProt P08913)
T1 sequence (P08913 whole entry): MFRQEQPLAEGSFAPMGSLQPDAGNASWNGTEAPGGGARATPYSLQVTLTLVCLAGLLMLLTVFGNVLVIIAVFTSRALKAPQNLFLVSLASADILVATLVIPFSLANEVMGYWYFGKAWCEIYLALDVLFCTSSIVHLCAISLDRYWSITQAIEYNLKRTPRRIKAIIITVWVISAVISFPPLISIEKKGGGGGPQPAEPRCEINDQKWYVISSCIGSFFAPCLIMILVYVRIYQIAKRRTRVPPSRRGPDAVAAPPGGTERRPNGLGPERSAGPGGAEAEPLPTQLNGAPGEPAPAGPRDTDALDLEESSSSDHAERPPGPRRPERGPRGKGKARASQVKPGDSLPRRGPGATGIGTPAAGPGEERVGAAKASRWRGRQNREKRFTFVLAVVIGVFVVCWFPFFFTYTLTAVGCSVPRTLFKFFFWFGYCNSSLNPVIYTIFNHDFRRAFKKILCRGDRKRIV

[2] = biological target: T2, Gastric inhibitory polypeptide receptor (Homo sapiens, UniProt P48546)
T2 sequence (P48546 whole entry): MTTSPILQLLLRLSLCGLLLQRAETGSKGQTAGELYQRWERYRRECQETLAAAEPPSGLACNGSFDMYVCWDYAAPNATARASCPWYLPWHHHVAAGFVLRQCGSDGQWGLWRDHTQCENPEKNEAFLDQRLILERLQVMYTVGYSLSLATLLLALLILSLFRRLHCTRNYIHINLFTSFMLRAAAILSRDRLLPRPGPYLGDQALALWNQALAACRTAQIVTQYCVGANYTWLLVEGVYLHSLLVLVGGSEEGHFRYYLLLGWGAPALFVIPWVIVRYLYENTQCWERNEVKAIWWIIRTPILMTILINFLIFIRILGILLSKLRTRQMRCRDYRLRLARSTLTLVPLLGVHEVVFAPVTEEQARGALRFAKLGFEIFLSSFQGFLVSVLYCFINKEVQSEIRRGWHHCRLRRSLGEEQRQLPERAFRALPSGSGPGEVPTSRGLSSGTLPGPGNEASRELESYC

[3] = biological target: 5-hydroxytryptamine receptor 2B (Homo sapiens, UniProt P41595)
Chain of 5-hydroxytryptamine receptor 2B (P41595 whole entry): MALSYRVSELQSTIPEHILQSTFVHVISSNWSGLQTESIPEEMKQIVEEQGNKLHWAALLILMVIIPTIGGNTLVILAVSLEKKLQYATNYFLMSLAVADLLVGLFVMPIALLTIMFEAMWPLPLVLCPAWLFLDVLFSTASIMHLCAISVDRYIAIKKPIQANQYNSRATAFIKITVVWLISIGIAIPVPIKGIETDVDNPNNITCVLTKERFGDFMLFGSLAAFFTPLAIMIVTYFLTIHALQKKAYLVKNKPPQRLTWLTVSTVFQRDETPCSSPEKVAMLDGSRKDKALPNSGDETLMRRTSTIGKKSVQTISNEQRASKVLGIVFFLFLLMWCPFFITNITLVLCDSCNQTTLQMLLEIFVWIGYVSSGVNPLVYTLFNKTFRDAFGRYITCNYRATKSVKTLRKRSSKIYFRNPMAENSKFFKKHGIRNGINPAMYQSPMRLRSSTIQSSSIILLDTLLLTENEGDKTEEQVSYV

[4] = biological target: T3, Neuropeptide Y receptor type 2 (Homo sapiens, UniProt P49146)
T3 sequence (P49146 whole entry): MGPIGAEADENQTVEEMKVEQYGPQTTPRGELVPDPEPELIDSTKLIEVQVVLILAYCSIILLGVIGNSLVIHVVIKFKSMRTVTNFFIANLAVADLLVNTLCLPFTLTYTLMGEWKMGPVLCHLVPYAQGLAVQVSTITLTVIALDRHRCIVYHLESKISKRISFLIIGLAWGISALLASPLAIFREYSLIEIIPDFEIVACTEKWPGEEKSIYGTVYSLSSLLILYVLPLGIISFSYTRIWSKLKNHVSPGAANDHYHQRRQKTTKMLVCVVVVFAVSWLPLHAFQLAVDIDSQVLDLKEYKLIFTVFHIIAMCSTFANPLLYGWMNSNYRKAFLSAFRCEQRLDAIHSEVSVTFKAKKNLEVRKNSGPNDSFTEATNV

[5] = biological target: T4, Corticotropin-releasing factor receptor 2 (Homo sapiens, UniProt Q13324)
T4 sequence (Q13324 whole entry): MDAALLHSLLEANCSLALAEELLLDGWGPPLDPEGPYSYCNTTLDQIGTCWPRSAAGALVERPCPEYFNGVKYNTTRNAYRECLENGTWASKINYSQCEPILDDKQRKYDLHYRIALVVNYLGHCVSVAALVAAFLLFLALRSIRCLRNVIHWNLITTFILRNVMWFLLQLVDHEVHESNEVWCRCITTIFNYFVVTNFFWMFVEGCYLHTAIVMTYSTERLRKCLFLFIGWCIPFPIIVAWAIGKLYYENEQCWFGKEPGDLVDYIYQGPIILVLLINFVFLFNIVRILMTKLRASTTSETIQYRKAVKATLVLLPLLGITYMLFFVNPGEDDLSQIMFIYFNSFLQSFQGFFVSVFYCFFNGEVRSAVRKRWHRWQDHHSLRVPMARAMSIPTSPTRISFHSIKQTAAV

Androgen receptor = biological target: T5, Androgen receptor (Rattus norvegicus, UniProt P15207); format: functional
T5 sequence (P15207 whole entry): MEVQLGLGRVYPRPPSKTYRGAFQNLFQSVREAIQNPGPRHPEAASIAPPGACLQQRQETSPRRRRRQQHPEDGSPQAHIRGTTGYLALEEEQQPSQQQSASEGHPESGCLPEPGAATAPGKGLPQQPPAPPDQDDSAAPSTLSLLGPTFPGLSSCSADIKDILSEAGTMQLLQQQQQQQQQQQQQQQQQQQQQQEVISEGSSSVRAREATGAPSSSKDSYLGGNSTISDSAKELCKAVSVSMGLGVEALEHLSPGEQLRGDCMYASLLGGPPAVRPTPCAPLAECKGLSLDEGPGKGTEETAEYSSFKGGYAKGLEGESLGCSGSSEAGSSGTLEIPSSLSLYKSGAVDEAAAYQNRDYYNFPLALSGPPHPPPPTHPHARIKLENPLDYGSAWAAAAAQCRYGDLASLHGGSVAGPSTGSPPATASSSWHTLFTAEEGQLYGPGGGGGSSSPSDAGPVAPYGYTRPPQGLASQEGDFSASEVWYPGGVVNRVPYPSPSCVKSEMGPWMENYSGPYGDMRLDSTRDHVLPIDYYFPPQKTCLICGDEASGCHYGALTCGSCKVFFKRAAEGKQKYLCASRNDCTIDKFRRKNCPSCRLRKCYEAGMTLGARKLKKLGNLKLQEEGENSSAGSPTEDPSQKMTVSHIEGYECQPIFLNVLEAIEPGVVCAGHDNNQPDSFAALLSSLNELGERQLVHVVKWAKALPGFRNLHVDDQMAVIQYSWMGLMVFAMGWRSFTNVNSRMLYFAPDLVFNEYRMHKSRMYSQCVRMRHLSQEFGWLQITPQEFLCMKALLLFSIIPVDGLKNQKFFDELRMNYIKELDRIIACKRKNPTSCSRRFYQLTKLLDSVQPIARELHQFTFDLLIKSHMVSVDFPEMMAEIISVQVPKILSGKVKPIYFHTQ
Note: assay procedure not described here.

Chain of Glucagon receptor (P47871 whole entry): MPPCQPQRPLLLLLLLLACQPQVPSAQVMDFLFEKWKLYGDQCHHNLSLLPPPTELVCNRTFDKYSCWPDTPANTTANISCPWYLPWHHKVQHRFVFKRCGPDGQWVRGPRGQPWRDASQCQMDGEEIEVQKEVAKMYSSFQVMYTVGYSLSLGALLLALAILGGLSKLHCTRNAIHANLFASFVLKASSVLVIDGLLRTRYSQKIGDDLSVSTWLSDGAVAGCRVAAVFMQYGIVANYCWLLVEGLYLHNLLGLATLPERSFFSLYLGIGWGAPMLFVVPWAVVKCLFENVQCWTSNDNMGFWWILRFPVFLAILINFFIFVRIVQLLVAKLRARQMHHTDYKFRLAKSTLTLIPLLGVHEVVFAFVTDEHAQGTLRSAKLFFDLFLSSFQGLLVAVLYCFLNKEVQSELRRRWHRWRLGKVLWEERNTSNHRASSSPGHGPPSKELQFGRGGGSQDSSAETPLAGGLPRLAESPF

SMILES	AC50 (Glucagon receptor) [µM]	AC50 [1] [µM]	AC50 [2] [µM]	AC50 [3] [µM]	AC50 [4] [µM]	AC50 [5] [µM]	AC50 (Androgen receptor) [µM]
O=C1CN=C(c2ccccc2Cl)c2cc([N+](=O)[O-])ccc2N1 [CLONAZEPAM]	> 30	> 10	> 30	> 10	> 30	> 30	
COc1ccc(-n2nc(C(N)=O)c3c2C(=O)N(c2ccc(N4CCCCC4=O)cc2)CC3)cc1 [APIXABAN]							> 30
COc1ccc2c3c1O[C@H]1C(=O)CC[C@H]4[C@@H](C2)N(C)CC[C@]314 [HYDROCODONE]	> 30	> 10	> 30	> 10	> 30	> 30	
CN1C(=O)CN=C(c2ccccc2F)c2cc([N+](=O)[O-])ccc21 [FLUNITRAZEPAM]	> 30	> 10	> 30	> 10	> 30	> 30	
CC1NCCOC1c1ccccc1 (configuration not stated) [PHENMETRAZINE]	> 30		> 30		> 30	> 30	
CCCO[C@H]1[C@@H]([C@@H](COCc2ccc(Cl)cc2)OCc2ccc(Cl)cc2)OC(OCC)[C@@H]1O (some centres not stated) [CLOBENOSIDE]							> 30
CCC(=O)O[C@H](CC(=O)O)C[N+](C)(C)C [LEVOCARNITINE PROPIONATE]							> 30
O=C(O)c1nn(Cc2ccc(Cl)cc2Cl)c2ccccc12 [LONIDAMINE]							> 30
CC(C)(N)Cc1ccccc1 [PHENTERMINE]	> 30		> 30		> 30	> 30	
CN1C2CCCC1CC(NC(=O)c1nn(C)c3ccccc13)C2 (configuration not stated) [GRANISETRON]	> 30	> 10	> 30		> 30	> 30	
OCCN(CCO)c1nc(N2CCCCC2)c2nc(N(CCO)CCO)nc(N3CCCCC3)c2n1 [DIPYRIDAMOLE]				> 30			
N=C(N)NC(=O)Cc1c(Cl)cccc1Cl [GUANFACINE]				1.34			
CCOC(=O)C1=C(C)NC(C)=C(C(=O)OC)C1c1cccc(Cl)c1Cl (configuration not stated) [FELODIPINE]	> 30	> 10	> 30	> 10	> 30	> 30	
CC(=O)Oc1cccc2c1C(=O)c1c(OC(C)=O)cc(C(=O)O)cc1C2=O [DIACEREIN]				> 30			> 10
CC(=O)OCC(=O)[C@@]1(O)CC[C@H]2[C@@H]3CCC4=CC(=O)CC[C@]4(C)[C@@]3(F)[C@@H](O)C[C@@]21C [FLUDROCORTISONE ACETATE]							> 30
Cc1ccc(S(=O)(=O)NC(=O)N[C@H]2[C@H]3CC[C@@](C)([C@H]2O)C3(C)C)cc1 [GLIBORNURIDE]							> 30
CN1CCC(=C2c3ccccc3CC(=O)c3sccc32)CC1 [KETOTIFEN]				0.0328			

SMILES	AC50 (Glucagon receptor) [µM]	AC50 [1] [µM]	AC50 [2] [µM]	AC50 [3] [µM]	AC50 [4] [µM]	AC50 [5] [µM]	AC50 (Androgen receptor) [µM]
CN(C)CCOCC(=O)NC12CC3CC(CC(C3)C1)C2 [TROMANTADINE]							> 30
O=C(O[C@H]1C[N+]2(CCCOc3ccccc3)CCC1CC2)C(O)(c1cccs1)c1cccs1 [ACLIDINIUM BROMIDE]	> 30	2.27	> 30	> 10	> 30	> 30	
NS(=O)(=O)c1ccc(N2CCCCS2(=O)=O)cc1							> 30
CCCCC[C@H](O)CC[C@@H]1[C@H]2Cc3cccc(OCC(=O)O)c3C[C@H]2C[C@H]1O [TREPROSTINIL]							> 30
Cc1ccc(-c2ncc(Cl)cc2-c2ccc(S(C)(=O)=O)cc2)cn1 [ETORICOXIB]	> 30	> 10	> 30	> 10	> 30	> 30	
C[C@H](N)C(=O)N[C@@H](CCC(N)=O)C(=O)O [ALANYL GLUTAMINE] (H-Ala-Gln-OH)							> 30
O=C(O)c1ccc2nc(-c3cc(Cl)cc(Cl)c3)oc2c1							> 30
Cc1nnc2n1-c1ccc(Cl)cc1C(c1ccccc1)=NC2 [ALPRAZOLAM]	> 30	> 10	> 30	> 10	> 30	> 30	
CC1Cc2ccccc2N1NC(=O)c1ccc(Cl)c(S(N)(=O)=O)c1 (configuration not stated) [INDAPAMIDE]		> 10					
CC(NC(C)(C)C)C(=O)c1cccc(Cl)c1 (configuration not stated) [BUPROPION]	> 30	> 10	> 30	> 10	> 30	> 30	
CCCCCCCC(=O)CC[C@@H]1[C@@H](C/C=C\CCCC(=O)O)[C@@H](O)C[C@H]1O [UNOPROSTONE]							> 30
CCCCOC(=O)C(=O)Nc1cccc(-c2nnn[nH]2)c1 [TAZANOLAST]							> 30
CCN(CC)CC(=O)Nc1c(C)cccc1C [LIDOCAINE]	> 30		> 30		> 30	> 30	
CC1=C(CC(=O)O)c2cc(F)ccc2/C1=C\c1ccc([S+](C)[O-])cc1 (configuration not stated)	> 30	> 10	> 30	> 10	> 30	> 30	
CCN(CC)C(C)C(=O)c1ccccc1 (configuration not stated) [DIETHYLPROPION]	> 30	4.46	> 30	> 10	> 30	> 30	
Oc1cc(O)c2c(c1)O[C@H](c1ccc(O)c(O)c1)[C@@H](O)C2 [CIANIDANOL]	> 30	> 10	> 30	> 10	> 30	> 30	
